Assay results: the NIST ThermoML archive (doi:10.1016/j.fluid.2016.02.013)

Details: 101.33 kPa, Liquid; for viscosity: Concentric cylinders viscometry; for mass density: Vibrating tube method; for electrical conductivity: impedance analyzer

CCCC[P+](CCCC)(CCCC)CCCC.O=C([O-])[C@@H]1CCCN1 [tetrabutylphosphonium L-prolinate]
Details	electrical conductivity [S/m]	mass density [kg/m3]	viscosity [mPa·s]
298.15 K	0.00727	971.1	1025
303.15 K	0.0105	968.2	692.8
313.15 K	0.0201	962.38	343.6
323.15 K	0.0354	956.46	186.1
333.15 K	0.0584	950.54	108.7
343.15 K	0.0907	944.63	67.74
353.15 K	0.134	938.75	44.5
363.15 K	–	932.9	30.61
